Assay: gradient 5% acetonitrile 3 min, to 50% in 2 min, to 85% in 15 min, held 3 min, 100 µL/min
Details: column: Zorbax Extend-C18 2.1 x 50 mm; eluents: water / acetonitrile, 0.1% formic acid
Outline: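 Values are retention times taken from adduct peaks that software picked and an analyst inspected. The pure standards were run as mixtures of ~100 molecules on HPLC linked to a quadrupole time-of-flight mass spectrometer, in positive and negative ionization mode. A Zorbax Extend-C18 column (2.1 × 50 mm, 1.8 μm) was used at 100 μL/min with water and acetonitrile, each including 0.1% formic acid.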

RP-LC retention time | SMILES
1010 s | Cc1ccc(C)c(CNC(=O)CCc2conc2-c2ccc(F)cc2)c1
810 s | COc1ccc(OCc2nc(CCN(C)C(=O)c3cc(OC)cc(OC)c3)no2)cc1
736 s | O=C(CCSc1ccccc1)NCCOc1ccc2nnc(-c3ccccc3)n2n1
816 s | CCc1ccccc1S(=O)(=O)Nc1ccc2c(c1)CCC(=O)N2CCOC
1060 s | CCCN1C(=O)COc2ccc(-c3csc(NC(=O)c4ccccc4C)n3)cc21
758 s | COc1cccc(CNC(=O)C2CCN(c3ccc(SCc4ccccc4)nn3)CC2)c1
858 s | CCOc1cccc(CNc2nccc(-n3nc(C)cc3C)n2)c1
685 s | O=C(Nc1ccc2c(N3CCCCC3)ncnc2c1)c1ccc(Br)o1
1170 s | COC(=O)c1ccccc1NC(=O)c1c(O)c2cccc3c2n(c1=O)CC3
1180 s | Cc1ccc2oc(-c3noc(C(=O)NC(C)Cc4ccco4)n3)c(C)c2c1 (stereo not given)
950 s | CCN1C(=O)c2cccnc2Sc2cc(NC(=O)c3ccc(C(F)(F)F)cc3)ccc21
1190 s | CCOc1cccc(-c2noc(Cn3c(=O)n(C(C)C)c(=O)c4ccccc43)n2)c1
698 s | Cc1ccc(-c2nc3cccnc3n2CCCNC(=O)Nc2ccc3c(c2)OCCO3)cc1
1030 s | CCN1C(=O)c2cc(S(=O)(=O)Nc3cc(F)ccc3C)ccc2Oc2cccnc21
706 s | COc1ccccc1NS(=O)(=O)c1c[nH]c2ncccc12
1020 s | COc1ccc(-c2ncc3c(n2)CCN(C(=O)Nc2ccc(C)cc2Cl)C3)cc1
610 s | O=C(NCCCN1CCOCC1)c1cc(-c2ccccc2)nc2n[nH]c(-c3ccccc3)c12
1270 s | CCN(C(=O)c1ccc(OC)c(OC)c1)c1nc(-c2ccc(Br)cc2)cs1
940 s | Fc1ccc(OCc2nnc3sc(-c4ccccc4F)nn23)cc1

RP-LC retention time | SMILES
732 s | Cc1ccc(CC(=O)NC2CCN(c3cc(-c4cccs4)[nH]n3)C2)cc1 (stereo not given)
778 s | O=C(NC1CC1)c1ccc(OCC2CCCN2C(=O)c2cccc(F)c2)cc1 (stereo not given)
642 s | CN(C)S(=O)(=O)c1ccc(-c2nnc(C(=O)NCCN3CCc4ccccc4C3)o2)cc1
726 s | O=C(NCCc1nc2cccnc2n1Cc1ccccc1)Nc1ccc2c(c1)OCO2
942 s | CCOC(=O)c1sc(NC(=O)C2CC2)nc1-c1ccccc1
591 s | O=C(Cn1c(=O)oc2ccccc21)N1C[C@@H](CO)[C@H](c2ccccn2)C1
716 s | CCOc1ccc(CNC(=O)c2cnc(N3CCSCC3)nc2N)cc1
1140 s | CCCN(Cc1cccs1)C(=O)c1cc2c(=O)n(CCC)c3ccccc3n2n1
798 s | CCOc1ccc(NC(=O)Cc2nnc3ccc(C(=O)Nc4ccccc4)cn23)cc1
1270 s | CCc1ccc(OCc2ccc(C(=O)Nc3nc(-c4ccccc4)cs3)o2)cc1
659 s | CCCn1cnc2cc(CNC(=O)c3cc4ccccc4[nH]3)ccc21
933 s | O=C(Nc1ccc(F)cc1)C1CCCN(S(=O)(=O)Cc2ccc(F)cc2)C1 (stereo not given)
957 s | O=C(COc1ccc(F)cc1)Nc1cnc(N2CCCCCC2)nc1
1010 s | Cc1ccc(CNC(=O)C2CCCN(c3nc4ccsc4c(=O)n3Cc3ccc(F)cc3)C2)cc1 (stereo not given)
660 s | CCOc1cccc(-c2noc(Cn3c(=O)n(CCc4ccccc4)c(=O)c4sccc43)n2)c1
749 s | COC(=O)c1cc(-c2cccc(N)c2)nc2ccccc12
921 s | CCOC(=O)CC(=O)Nc1nc(C2COc3ccccc3O2)cs1 (stereo not given)
1210 s | COC(=O)c1ccc2c(=O)n(Cc3ccc(F)cc3)c(N3CCCCC3)nc2c1

Further lines, the compound ahead of its results:

SMILES | RP-LC retention time
CC(C)(C)NC(=O)N1CCC(CNS(=O)(=O)c2ccc(Br)s2)CC1 | 818 s
CCC(=O)N1CCc2cc(N3CC(C(=O)NC(C)CC)CC3=O)ccc21 (stereo not given) | 669 s
Cc1nn2c(S(=O)(=O)N3CCSCC3)c(C(C)C)nc2s1 | 862 s
CC(C)n1c(=O)sc2cc(S(=O)(=O)N3CCC(C(=O)NC4CCCCC4)CC3)ccc21 | 935 s
COc1ccccc1NC(=O)C1CCN(c2cc(N3CCCCC3)ncn2)CC1 | 700 s
Cc1ccc(C(=O)N(CC(=O)N(Cc2ccco2)CC2CCCO2)C(C)(C)C)cc1 (stereo not given) | 907 s
CSc1ccccc1C(=O)NCC1CCN(S(C)(=O)=O)CC1 | 641 s
COc1ccc(-c2noc(Cc3nnc(-c4cc(C)cc(C)c4)o3)n2)cc1 | 1110 s
Cc1ccc(-n2c(C)c(C)c3c(=O)n(CC(=O)N(C)Cc4ccco4)cnc32)cc1 | 907 s
O=C(C1CCN(c2nnc(-c3ccccc3)o2)CC1)N1CCCCC1 | 760 s
CCOC(=O)CSc1nc2ccccc2n1C | 670 s
CCOC(=O)c1c(C)oc2ncnc(Nc3ccc4c(c3)OCCO4)c12 | 1120 s
Cc1ccc2c(Nc3ccc4c(c3)OCCO4)c(C(=O)N3CCCC(C)C3)cnc2n1 (stereo not given) | 645 s
Cn1cnc(S(=O)(=O)N2CC[C@@H]3COCCN(Cc4ccccc4)[C@@H]3C2)c1 | 586 s
Cc1noc(C)c1CN1CCCCC1c1nc(-c2ccncc2)no1 (stereo not given) | 649 s
O=C(NCc1ccco1)c1ccc(NC(=O)C2CC2)cc1N1CCCCCC1 | 584 s
O=C(CSc1ccc(N2CCCC(C(=O)NC3CC3)C2)nn1)Nc1cccc(Br)c1 (stereo not given) | 664 s
CCCCn1c(CNC(=O)c2cccs2)nnc1SCC(=O)OCC | 713 s
CC(C)CCNC(=O)C1(C)Cn2nc(C(=O)NCc3ccc(Cl)cc3)cc2C(=O)N1C (stereo not given) | 822 s
CC(C)N1C(=O)c2cccnc2Sc2cc(C(=O)NCC3CCCO3)ccc21 (stereo not given) | 695 s
CO[C@H]1C(=O)N(C(C)C)[C@H]1C1CCN(C(=O)C(C)C)CC1 | 682 s
CNC(=O)CN1C(=O)C2CCCCN2c2ccc(S(=O)(=O)N(C)C)cc21 (stereo not given) | 690 s
COc1cc([C@@H]2c3cc4c(c(O)c3C[C@H]3COC(=O)[C@@H]32)OCO4)cc(OC)c1OC | 620 s
CCc1cccc(C)c1NC(=O)CN1C(=O)NC2(CCCCC2)C1=O | 804 s
Cc1cccc(-c2noc(C3CCCN3S(=O)(=O)c3cccc(Cl)c3C)n2)c1 (stereo not given) | 1310 s
O=C(C1CC1)N1CCc2sc(S(=O)(=O)NCc3ccccc3F)cc2C1 | 815 s
Cc1nn(-c2nc(CC(=O)N3CCCCC3)cs2)c(C)c1Cl | 1050 s

SMILES | RP-LC retention time
Cc1ccc(C)c(S(=O)(=O)N2CCC3(CC2)NCCN=C3NCc2ccccc2F)c1 | 757 s
COc1cc(OC)cc(C(=O)N2CCCC2c2nc(-c3cccc(C(F)(F)F)c3)no2)c1 (stereo not given) | 1120 s
CCOC(=O)N1CCN(C(=O)CN2C(=O)c3ccccc3S2(=O)=O)CC1 | 643 s
CCNC(=O)C1CCCN(c2nc3ncn(CC(=O)NC4CCCC4)c(=O)c3s2)C1 (stereo not given) | 637 s
CN(C)CCNC(=O)c1cc2n(n1)CC(C)(C(=O)NCc1ccc(F)cc1)N(C)C2=O (stereo not given) | 576 s
Cc1oc(C2CCN(S(=O)(=O)c3ccc(C(C)C)cc3)CC2)nc1C(=O)N1CCCC1 | 1070 s
O=C(NC1CCCc2ccccc21)c1ccc2c(c1)OCCCO2 (stereo not given) | 958 s
O=c1oc2c(O)c(O)ccc2c2c1CCCC2 | 683 s
O=C1NCCCn2cc(S(=O)(=O)N3CCN(c4ccccc4)CC3)cc21 | 724 s
O=C(NCc1cccc(F)c1)N1C[C@@H]2C[C@H](NS(=O)(=O)c3cccnc3)[C@H]1C2 | 688 s
Clc1nnc(NC2CCCCC2)c(Cl)c1Cl | 1200 s
CCCN(CC1CCOC1)C(=O)Nc1cc(C)ccc1OC (stereo not given) | 874 s
CCC(=O)N(C)CCc1noc(-c2ccc(C(=O)NCCN(CC)CC)cc2)n1 | 597 s
CCCN(CC1CCOC1)C(=O)NCc1ccc(F)cc1 (stereo not given) | 758 s
CCc1nccn1Cc1noc(-c2ccccc2C)n1 | 649 s
CCn1cc(C(=O)NCc2ccc(Br)cc2)c2cccnc21 | 836 s
CCc1nc(-c2csc(S(=O)(=O)N3CCCC(C(=O)Nc4c(C)cc(C)cc4C)C3)c2)no1 (stereo not given) | 1210 s
COCCNC(=O)CN1C(=O)C2CCCCN2c2ccc(C(=O)N3CCCCC3)cc21 (stereo not given) | 696 s
CCC(=O)N1CCN(c2nc3c(s2)CC(C(=O)Nc2ccc(Cl)c(C)c2)CC3)CC1 (stereo not given) | 607 s
O=C(CN1CCN(C(=O)Nc2ccc(Br)cc2)CC1=O)NCCN1CCCCC1 | 602 s
Cc1ccc(NC(=O)C2CC(=O)N(c3ccc4oc(C)nc4c3)C2)c(C)c1 (stereo not given) | 741 s
COc1cc(OC)cc(C(=O)N2CCN=C2N2CCCCC2)c1 | 646 s
O=C(NCCc1csc(C2CCCN(C(=O)C3CCOC3)C2)n1)C1CC1 (stereo not given) | 753 s
COc1cc(OC)cc(-c2nc(-c3cccc(-c4ccnn4C)c3)no2)c1 | 1160 s
Cc1cc(C)cc(NC(=O)N2CCCC(C)(C(=O)NCc3ccccc3C)C2)c1 (stereo not given) | 897 s
O=C(NC1CC1)c1cn(CCC2CCCCN2C(=O)c2ccoc2)nn1 (stereo not given) | 641 s

— the METLIN SMRT retention time set (Domingo-Almenara et al. 2019)
